Measurements as given in patent publication US10717742B2, “Spiro[3H-indole-3,2′-pyrrolidin]-2(1H)-one compounds and derivatives as MDM2-P53 inhibitors” (Boehringer Ingelheim International GmbH, priority 2015, dated 2020).

Key:
[1] = tested on: p53 wild-type vs. p53 mutant cell lines; conditions: in vitro, PPTP of the NCI; cited from earlier work
[2] = tested on: solid tumor xenograft models; conditions: cited from earlier work
[3] = tested on: acute lymphoblastic leukemia (ALL) xenograft models with mixed-lineage leukemia (MLL) rearrangement; conditions: cited from earlier work
[4] = tested on: human acute myeloid leukemia (AML) and human prostate tumor xenograft models harboring p53 wild-type; conditions: cited from earlier work
[5] = biological target: p53-MDM2 interaction (GST-MDM2 protein aa 23-117 / biotinylated p53 wt peptide) (Homo sapiens (Human), UniProt Q00987); assay: Mdm2-p53 Inhibition AlphaScreen; type: binding; conditions: GST-MDM2 (aa 23-117) / biotinylated p53 wt peptide
p53-MDM2 interaction (GST-MDM2 protein aa 23-117 / biotinylated p53 wt peptide), sequence (Q00987 23-117): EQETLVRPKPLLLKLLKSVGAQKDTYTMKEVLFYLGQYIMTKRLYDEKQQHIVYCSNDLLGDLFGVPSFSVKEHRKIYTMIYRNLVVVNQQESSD

CCOc1cc(C(C)(C)C)ccc1C1=N[C@@](C)(c2ccc(Cl)cc2)[C@@](C)(c2ccc(Cl)cc2)N1C(=O)N1CCN(CCCS(C)(=O)=O)CC1 [RG-7112]
cytotoxic activity, median IC50 [1]: lower median IC50 values for p53 wild-type vs. p53 mutant cell lines
tumor growth inhibition [2]: induced tumor growth inhibition
efficacy in xenograft models [3]: particularly efficacious

CCOc1cc(C(C)(C)C)ccc1C1=N[C@@](C)(c2ccc(Cl)cc2)[C@@](C)(c2ccc(Cl)cc2)N1C(=O)N1CCN(CCCS(C)(=O)=O)CC1 [RG7112]
antiproliferative and proapoptotic activity [4]: antiproliferative and proapoptotic activity

Nc1ccc2c(c1)nc1n2CC[C@H]2[C@@H]1[C@H](c1cccc(Cl)c1F)[C@]1(C(=O)Nc3cc(Cl)ccc31)N2CC1CC1 [Ib-247]
IC50 [5]: 27 nM

CCOc1cccc(CN2[C@H]3Cn4c(nc5cc(C(N)=O)ccc54)[C@H]3[C@H](c3cccc(Cl)c3F)[C@]23C(=O)Nc2cc(Cl)ccc23)c1 [Ib-241]
IC50 [5]: 4 nM

COCCN1[C@H]2Cc3c4ccc(C(=O)O)cc4nn3[C@H]2[C@H](c2cccc(Cl)c2F)[C@]12C(=O)Nc1cc(Cl)ccc12 [Ia-31]
IC50 [5]: 3 nM

O=C(O)c1cccc2nc3n(c12)CC[C@H]1[C@@H]3[C@H](c2cccc(Cl)c2F)[C@]2(C(=O)Nc3cc(Cl)ccc32)N1CC1CC1 [Ib-156]
IC50 [5]: 5 nM

O=C(NC(CO)(CO)CO)c1ccc2c(c1)nc1n2CC[C@H]2[C@@H]1[C@H](c1cccc(Cl)c1F)[C@]1(C(=O)Nc3cc(Cl)ccc31)N2CC1CC1 [Ib-218]
IC50 [5]: 6 nM

CNC(=O)c1ccc2c(c1)nc1n2C[C@H]2[C@@H]1[C@H](c1cccc(Cl)c1F)[C@]1(C(=O)Nc3cc(Cl)ccc31)N2CC1CC1 [Ib-240]
IC50 [5]: 3 nM

CCOc1cccc(CN2[C@H]3Cc4c5cc(C)c(C(=O)N(C)C)cc5nn4[C@H]3[C@H](c3cccc(Cl)c3F)[C@]23C(=O)Nc2cc(Cl)ccc23)c1 [Ia-57]
IC50 [5]: 13 nM

O=C1Nc2cc(Cl)ccc2[C@@]12[C@@H](c1cccc(Cl)c1F)[C@@H]1c3nc4cc(CO)ccc4n3CC[C@@H]1N2CC1CC1 [Ib-245]
IC50 [5]: 20 nM

CCN1[C@H]2Cc3c4ccc(C(=O)NCCO)cc4nn3[C@H]2[C@H](c2cccc(Cl)c2F)[C@]12C(=O)Nc1cc(Cl)ccc12 [Ia-50]
IC50 [5]: 4 nM

O=C(O)c1cc2nc3n(c2cc1C(F)(F)F)CC[C@H]1[C@@H]3[C@H](c2cccc(Cl)c2F)[C@]2(C(=O)Nc3cc(Cl)ccc32)N1CC1CC1 [Ib-164]
IC50 [5]: 3 nM

O=C(O)c1ccc2c(c1)nc1n2CC[C@H]2[C@@H]1[C@H](c1cccc(Cl)c1F)[C@]1(C(=O)Nc3nc(Cl)ccc31)N2CC1CC1 [Ib-171]
IC50 [5]: 10 nM

CCN1[C@H]2Cn3c(nc4cc(C(=O)O)c(C)cc43)[C@H]2[C@H](c2cccc(Cl)c2F)[C@]12C(=O)Nc1cc(Cl)ccc12 [Ib-191]
IC50 [5]: 6 nM

CC(C)CN1[C@H]2CCn3c(nc4cc(C(N)=O)ccc43)[C@H]2[C@H](c2cccc(Cl)c2F)[C@]12C(=O)Nc1cc(Cl)ccc12 [Ib-232]
IC50 [5]: 3 nM
